Experiments:
[1] = system: H+/OC antiporter; assay: DPHM uptake in BMECs after inflammatory cytokine treatment; conditions: cytokine 0.1–30 ng/ml, 24 h; DPHM 30 μM, 30 s
[2] = Brain uptake index; assay type: in vivo, rat; conditions: data not shown

Molecule	Effect on DPHM uptake into BMECs [1]	Brain uptake of reference compound, control vs LPS rats [2]
IL-1β: recombinant human interleukin-1β	little effect	–
TNF-α	little effect	–
O=C(O)Cc1ccccc1Nc1c(Cl)cccc1Cl [diclofenac]	–	similar

Reference: publication PMC8474606 (Brain, Behavior, & Immunity - Health, 2020)
